For one assay, the target named is T1, 5-HT3A (Homo sapiens, UniProt P46098).
T1 sequence (P46098 24-478): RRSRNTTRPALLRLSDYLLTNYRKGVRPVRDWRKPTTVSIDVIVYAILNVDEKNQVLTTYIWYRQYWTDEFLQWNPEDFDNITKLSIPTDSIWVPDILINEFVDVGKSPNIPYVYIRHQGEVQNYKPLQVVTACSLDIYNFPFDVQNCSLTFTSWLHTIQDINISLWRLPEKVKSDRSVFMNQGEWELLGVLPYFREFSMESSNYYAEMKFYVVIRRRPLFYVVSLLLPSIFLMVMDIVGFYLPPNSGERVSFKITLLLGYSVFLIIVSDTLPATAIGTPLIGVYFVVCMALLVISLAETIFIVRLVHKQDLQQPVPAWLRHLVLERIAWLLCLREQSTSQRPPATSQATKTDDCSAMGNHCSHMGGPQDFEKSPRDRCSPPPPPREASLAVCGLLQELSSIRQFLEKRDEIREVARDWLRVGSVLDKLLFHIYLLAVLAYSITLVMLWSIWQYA
The assay is described as follows: LGIC-CNiFER FRET calcium sensor assay in HEK cells, 5-HT3A. The assay is classed as cell-based. Particulars: control at 0.1 μM.

The target of assay [1] is T2, α7nAChR (Homo sapiens, UniProt P36544). The assay is described as follows: LGIC-CNiFER FRET calcium sensor assay in HEK cells, α7nAChR. The assay is classed as cell-based.
The target in assay [2] is T2, α7nAChR. The assay is classed as cell-based.
Another assay concerns the target α1nAChR (Homo sapiens, UniProt P02708+Q07001). The assay is described as follows: LGIC-CNiFER membrane potential dye assay in HEK cells, α1nAChR. The assay is classed as cell-based. As to conditions: 0.1 µM.
The next assay addresses Ls-AChBP (Lymnaea stagnalis, UniProt P58154). Particulars: cited from earlier work.
The conditions of assay [3]: 125I-Bgt displacement assay; cited from earlier work.
Assay [4] deals with AChBPs (Ls, Ac, and AcY55W). Briefly: [3H] epibatidine competition SPA, the three AChBPs together. The assay is classed as binding. Particulars: 10 μM of each compound.
In the next assay the target is T3, Ac-AChBP (Aplysia californica, UniProt Q8WSF8).
T3 sequence (Q8WSF8 18-236 limits assumed): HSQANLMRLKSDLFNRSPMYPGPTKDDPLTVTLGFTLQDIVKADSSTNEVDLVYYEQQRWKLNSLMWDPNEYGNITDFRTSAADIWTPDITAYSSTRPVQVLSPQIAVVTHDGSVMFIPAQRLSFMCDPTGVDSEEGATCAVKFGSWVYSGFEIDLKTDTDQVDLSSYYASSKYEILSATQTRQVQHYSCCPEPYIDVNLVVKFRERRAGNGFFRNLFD
The assay is described as follows: [3H] epibatidine competition scintillation proximity assay, Ac-AChBP. The assay is classed as binding. In general terms: Scintillation proximity formats need no separation of bound from free tracer.

A further assay deals with AcY55W-AChBP (Aplysia californica, UniProt Q8WSF8, Y72W). Briefly: [3H] epibatidine competition scintillation proximity assay, AcY55W-AChBP. The assay is classed as binding.

Read-outs that look alike come from different tables or passages of the source.

T2 sequence (P36544 23-502): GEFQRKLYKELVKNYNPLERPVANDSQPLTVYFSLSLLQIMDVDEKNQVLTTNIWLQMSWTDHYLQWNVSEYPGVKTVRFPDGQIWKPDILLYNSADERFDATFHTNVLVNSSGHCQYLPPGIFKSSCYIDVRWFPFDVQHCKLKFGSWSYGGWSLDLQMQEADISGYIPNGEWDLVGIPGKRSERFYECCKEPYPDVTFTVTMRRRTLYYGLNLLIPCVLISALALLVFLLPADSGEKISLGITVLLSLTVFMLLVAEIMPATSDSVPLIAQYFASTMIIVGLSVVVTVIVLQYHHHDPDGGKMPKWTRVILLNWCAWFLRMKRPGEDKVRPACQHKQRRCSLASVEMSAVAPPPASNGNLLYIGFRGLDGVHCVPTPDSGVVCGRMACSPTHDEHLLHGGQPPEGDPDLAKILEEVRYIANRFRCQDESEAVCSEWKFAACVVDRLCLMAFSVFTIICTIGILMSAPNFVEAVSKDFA
Sequence of Ls-AChBP (P58154 20-229 limits assumed): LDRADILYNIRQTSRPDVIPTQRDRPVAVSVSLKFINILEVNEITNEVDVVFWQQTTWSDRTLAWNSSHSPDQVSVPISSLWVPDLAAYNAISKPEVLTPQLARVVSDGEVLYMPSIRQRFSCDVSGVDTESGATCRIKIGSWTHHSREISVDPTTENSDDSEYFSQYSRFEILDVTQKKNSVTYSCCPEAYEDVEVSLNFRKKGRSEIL
Sequence of AcY55W-AChBP (Q8WSF8 18-236 Y72W limits assumed): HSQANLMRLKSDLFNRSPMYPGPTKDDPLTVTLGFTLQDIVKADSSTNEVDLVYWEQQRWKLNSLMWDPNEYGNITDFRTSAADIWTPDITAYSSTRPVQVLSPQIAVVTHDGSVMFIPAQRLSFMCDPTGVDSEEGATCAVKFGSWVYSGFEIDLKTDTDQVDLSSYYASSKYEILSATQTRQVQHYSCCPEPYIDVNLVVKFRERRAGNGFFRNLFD
Sequence of α1nAChR (P02708 21-457): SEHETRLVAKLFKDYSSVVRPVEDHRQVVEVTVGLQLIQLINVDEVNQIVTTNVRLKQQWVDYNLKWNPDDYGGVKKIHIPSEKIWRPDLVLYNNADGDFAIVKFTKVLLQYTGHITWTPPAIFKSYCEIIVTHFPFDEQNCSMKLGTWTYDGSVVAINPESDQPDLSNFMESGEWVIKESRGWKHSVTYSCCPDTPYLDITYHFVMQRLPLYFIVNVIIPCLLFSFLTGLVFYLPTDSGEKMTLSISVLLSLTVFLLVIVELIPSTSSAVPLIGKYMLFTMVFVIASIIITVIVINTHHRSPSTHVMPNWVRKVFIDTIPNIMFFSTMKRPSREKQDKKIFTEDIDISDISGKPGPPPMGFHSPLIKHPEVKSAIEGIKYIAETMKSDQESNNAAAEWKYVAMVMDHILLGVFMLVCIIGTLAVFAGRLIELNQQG
Sequence of α1nAChR (P11230 24-501 partner): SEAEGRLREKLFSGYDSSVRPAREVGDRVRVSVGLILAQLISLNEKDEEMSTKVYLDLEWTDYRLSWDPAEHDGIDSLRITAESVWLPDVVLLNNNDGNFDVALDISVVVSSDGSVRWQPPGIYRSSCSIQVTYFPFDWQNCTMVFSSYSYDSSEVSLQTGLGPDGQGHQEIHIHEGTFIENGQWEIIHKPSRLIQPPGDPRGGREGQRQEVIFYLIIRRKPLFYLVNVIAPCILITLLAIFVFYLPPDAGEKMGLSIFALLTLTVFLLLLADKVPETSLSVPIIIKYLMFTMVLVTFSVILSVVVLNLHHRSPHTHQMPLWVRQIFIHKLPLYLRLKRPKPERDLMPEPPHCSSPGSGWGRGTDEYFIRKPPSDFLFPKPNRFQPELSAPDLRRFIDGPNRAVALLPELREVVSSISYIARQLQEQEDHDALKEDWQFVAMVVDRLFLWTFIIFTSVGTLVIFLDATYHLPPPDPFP
Sequence of α1nAChR (Q07001 22-517): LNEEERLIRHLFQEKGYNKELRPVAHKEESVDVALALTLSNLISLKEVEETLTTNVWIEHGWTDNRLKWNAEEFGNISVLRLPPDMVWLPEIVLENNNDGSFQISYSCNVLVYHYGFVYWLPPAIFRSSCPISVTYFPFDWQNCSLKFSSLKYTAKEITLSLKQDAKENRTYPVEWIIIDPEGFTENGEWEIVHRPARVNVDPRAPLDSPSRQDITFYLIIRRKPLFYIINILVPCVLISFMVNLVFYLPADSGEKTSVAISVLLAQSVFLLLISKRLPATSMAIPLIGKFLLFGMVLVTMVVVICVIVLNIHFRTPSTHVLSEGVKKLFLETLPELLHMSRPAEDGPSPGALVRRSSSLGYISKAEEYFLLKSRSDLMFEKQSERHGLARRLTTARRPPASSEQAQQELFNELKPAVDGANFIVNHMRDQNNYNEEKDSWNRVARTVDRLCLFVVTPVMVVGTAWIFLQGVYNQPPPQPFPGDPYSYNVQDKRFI

As to `CN1[C@@H]2CC[C@H]1C[C@@H](OC(=O)c1c[nH]c3ccccc13)C2` [Tropocitron], the “percent inhibition, 5-HT3A” value on 5-HT3A turned out to be 96 ± 0.6%. As for `CCN1C[C@]2(COC(=O)c3ccccc3N3C(=O)C[C@H](C)C3=O)CC[C@H](OC)[C@@]34[C@@H]5C[C@H]6[C@H](OC)[C@@H]5[C@](O)(C[C@@H]6OC)[C@@](O)([C@@H](OC)[C@H]23)[C@@H]14` [MLA, methyllycaconitine], the “percent inhibition, α7nAChR” value on α7nAChR [1] (1 µM) is reported as 79 ± 6.4%. Besides, the “inhibition of current response elicited by 100 μM ACh” value at α7nAChR [2] was “completely inhibited”.

As to α-Bungarotoxin, the “percent inhibition, α1nAChR” value at α1nAChR was found to be 94 ± 0.8%.

What is called Kd is the constant that tells how readily two partners part at equilibrium. For `C[N+](C)(C)CCOC(N)=O` [carbamylcholine], the Kd on Ls-AChBP (isothermal titration calorimetry using Ls-AChBP) is 7580 nM. Usually pKd stands for the Kd on a negative log10 scale, so that one unit is a factor of ten. Regarding `CC(=O)OCC[N+](C)(C)C` [ACh, acetylcholine], the pKd in assay [3] was 5.5. Further, on Ls-AChBP, the dissociation constant (Kd) is 823 nM. Regarding `C[N+]1(C)[C@@H]2CC[C@H]1C[C@@H](OC(=O)C(CO)c1ccccc1)C2` (stereo partly drawn) [Compound 10], in [4], the “interference with the binding of [3H] epibatidine to BPs (screening)” value is on record as “significant interference”. In addition, the “selectivity of antagonism among LGIC-CNiFERs” value on α7nAChR [1] was “nonselective antagonists”. Besides, the Kd is 882 ± 117 nM at Ac-AChBP and 2010 ± 137 nM on AcY55W-AChBP. As to `CN1CCC[C@H]1c1cccnc1` [nicotine], in assay [3], the pKd was 7.2.
